The conditions of data set [1]: cited from earlier work.
Data set [2] relates to 4T1 murine breast cancer cell line. In words: Cell viability (MTS) assay. Type of data set: cell-based. As to conditions: Mus musculus. How it is done:
(§1) 4T1 and MDA MB 468 breast cancer cells were cultured in RPMI, 4306 ovarian cancer cells were cultured in DMEM, supplemented with 10% FBS and 1% of Antibiotic-Antimycotic 100× solution. 4×10^3 Cells were seeded into 96-well flat-bottomed plates. Free drug or drug loaded nanoparticles (normalized to equivalent amounts of free drug) were added in triplicate in each 96-well plate and then plates were incubated in 5% CO^2 atmosphere at 37° C. After desired time period of incubation, cells were washed and incubated with 100 μL phenol-red free medium (without FBS) containing 20 μl of the CellTiter 96 Aqueous One Solution reagents (PROMEGA, WI). After 2 hours incubation, the absorbance in each well was recorded.
(§2) 4T1 and MDA MB 468 breast cancer cells were cultured in RPMI, 4306 ovarian cancer cells were cultured in DMEM, supplemented with 10% FBS and 1% of Antibiotic-Antimycotic 100× solution (Invitrogen, 15240-062). 4×10^3 Cells were seeded into 96-well flat-bottomed plates. Free drug or drug loaded nanoparticles (normalized to equivalent amounts of free drug) was added in triplicate in each 96-well plate at appropriate concentrations (1, 10, 100 nM and 1, 10, and […]) and then plates were incubated in 5% CO2 atmosphere at 37° C. After desired time period of incubation, cells were washed and incubated with […] phenol-red free medium (without FBS) containing […] of the CellTiter 96 Aqueous One Solution reagents (Promega, WI). After 2 hours incubation in a 5% CO2 atmosphere at 37° C., the absorbance in each well was recorded at 490 nm using an Epoch plate reader (Biotek instruments, VT). The absorbance reflects the number of surviving cells. Blanks were subtracted from all data and results analyzed using GraphPad Prism™ software (GraphPad, San Diego, Calif.). Each experiment was independently repeated thrice and data shown is mean±SE of n=3.

The subject of data set [3] is MDA-MB-468 human breast cancer cell line. In words: Cell viability (MTS) assay. Type of data set: cell-based. How it is done: as §1, §2
Data set [4] concerns PI3K-overexpressing 4306 ovarian cancer cell line. In words: Cell viability (MTS) assay. Type of data set: cell-based. How it is done:
as §1, §2

The next data set concerns 4T1 breast cancer tumors. In words: Efficacy study of SNPs in murine 4T1 breast cancer model. Type of data set: in vivo, BALB/c mice. As to conditions: 5 mg/kg PI103 equivalent, 3 injections every other day. How it is done: 4T1 breast cancer cells ([…]) were implanted subcutaneously in the flanks of 4-week-old BALB/c mice. The drug therapy was started on day 9. The drug therapy consisted of administration of PBS (for Control group), free drug (5 mg/kg) and SNPs (5 mg/kg). For PI103-SNPs, the drug therapy also consisted iRGD-PI103-SNPs group (5 mg/kg). The tumor volumes and body weights were monitored on every alternate day for 11 days.
The drug therapy was started on day 9. For PI828-SNPs, the drug therapy consisted of administration of PBS (for Control group), free PI-828 (5 mg/kg) and PI828-SNPs (5 mg/kg). For PI103-SNPs, the drug therapy consisted of administration of PBS (for control group), free PI-103 (5 mg/kg) and PI103-SNPs (5 mg/kg) and 1RGD-PI103-SNPs (5 mg/kg) (administered by tail-vain injection). The tumor volumes and body weights were monitored on every alternate day for 11 days. […] The animals were sacrificed when the average tumor volume of the control exceeded 2000 mm3 in the control group.

In the case of `Oc1cccc(-c2nc(N3CCOCC3)c3oc4ncccc4c3n2)c1` [PI103], in data set [1], the aqueous solubility result was “limited aqueous solubility”. For the same molecule, the IC50 in data set [2] (48 hours) came out at 122 ± 3.15 nM; in data set [2] (72 hours), 67.3 ± 3.4 nM; in data set [3] (48 hours) it was 445 ± 67 nM; in data set [3] (72 hours) it was 312 ± 49 nM; in data set [4] (48 hours), 286 ± 45 nM; in data set [4] (72 hours), 392 ± 49.3 nM. Moreover, the tumor growth entry in the data set with 4T1 breast cancer tumors is reported as “tumor growth inhibition relative to PBS-treated controls, but tumor rebound was observed after the treatment was stopped”.

A word on the IC50: it is the concentration needed to halve the response being measured. A low value points to inhibition by little substance.
